≈ marks a conversion by molar mass, not a printed value. Where two headings read alike, the source gives them in different places.
What was measured:
MtbADSL [1] = target: T1, MtbADSL (Mycobacterium tuberculosis, UniProt I6XWA1); assay: PPDK-luciferase coupling Mtb ADSL enzyme assay; type: biochemical
[2] = test system: intracellular Mtb H37Ra in RAW264.7 macrophages; assay: Phagocytosis assay, intracellular bacterial load in RAW264.7 macrophages
MtbADSL [3] = target: T1, MtbADSL; assay: AMP-Glo Mtb ADSL assay; type: biochemical
MtbADSL [4] = target: T1, MtbADSL; assay: Protein thermal shift assay; type: binding; conditions: compound together with 4-HNE, 10 μM
MtbADSL [5] = target: T1, MtbADSL; assay: Gel-based thermal shift assay; type: binding; conditions: 15 or 30 μM compound, MtbADSL 5 μM
human ADSL (huADSL) = target: T2, human ADSL (huADSL) (Homo sapiens, UniProt P30566); assay: Human ADSL PPDK-AMP assay; type: biochemical; conditions: for SI, selectivity index, IC50-human/IC50-Mtb: PPDK-coupling assay
T2 sequence (P30566 1-484): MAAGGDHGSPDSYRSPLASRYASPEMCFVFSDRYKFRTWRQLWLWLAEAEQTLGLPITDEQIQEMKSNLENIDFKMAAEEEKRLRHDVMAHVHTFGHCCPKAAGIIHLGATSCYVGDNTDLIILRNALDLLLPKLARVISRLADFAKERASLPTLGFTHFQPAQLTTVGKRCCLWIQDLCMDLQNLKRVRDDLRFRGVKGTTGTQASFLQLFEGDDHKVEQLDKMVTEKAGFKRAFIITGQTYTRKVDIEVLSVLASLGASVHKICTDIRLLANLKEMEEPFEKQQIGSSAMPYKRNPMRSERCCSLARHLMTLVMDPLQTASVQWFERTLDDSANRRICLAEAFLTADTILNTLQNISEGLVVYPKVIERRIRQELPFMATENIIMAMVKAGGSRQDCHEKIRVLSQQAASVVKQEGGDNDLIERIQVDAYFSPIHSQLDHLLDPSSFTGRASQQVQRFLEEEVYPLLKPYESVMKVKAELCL

MtbADSL [6] = target: T1, MtbADSL; assay: Fluorescence polarization; type: biochemical
M. tuberculosis H37Ra = assay: Antibacterial susceptibility, broth dilution, AlamarBlue; type: cell-based; conditions: Mycobacterium tuberculosis, read-out: MIC H37Ra
M. tuberculosis H37Rv = assay: Antibacterial susceptibility, OD600, MIC estimated as EC90; type: cell-based; conditions: Mycobacterium tuberculosis, read-out: MIC H37Rv (estimated by EC90)
[7] = target: coupling enzymes, PPDK and luciferase; assay: ADSL-free PPDK-luciferase coupling enzyme assay; type: biochemical, Clostridium symbiosum (PPDK); firefly (luciferase); conditions: read-out: IC50 ADSL-free; no ADSL, AMP 10 μM as substrate
in vitro [8] = conditions: human, CC50 CCF-STTG1
in vitro [9] = conditions: human
A549 cells = assay: Cytotoxicity CCK-8; conditions: at the MIC determined for H37Rv
Cytotoxicity CCK-8 [10] = conditions: human
Cytotoxicity CCK-8 [11] = conditions: human, HEK293 cells
Mtb H37Ra = assay: AMP rescue assay; type: cell-based, Mycobacterium tuberculosis; conditions: compound at MIC, AMP 0-5 mM, 7 days
Mycobacterium abscessus = conditions: cited from earlier work
Cytotoxicity CCK-8 [12] = conditions: human, CCF-STTG1 cells, CC50 CCF-STTG1, 48 h

| SMILES | Reduction of intracellular Mtb growth ([2]; 5 μM) | Reduction of intracellular Mtb growth ([2]; 15 μM) | IC50 (MtbADSL [3]) [µM] | Protection of MtbADSL from heat-induced denaturation and aggregation (MtbADSL [5]) | IC50 (human ADSL (huADSL)) [µM] | IC50 (MtbADSL [6]) [µM] | MIC (M. tuberculosis H37Ra; 168 h) [mg/L] | MIC (M. tuberculosis H37Ra) [µM] | MIC (M. tuberculosis H37Rv) [µM] | IC50 [7] [µM] | IC50 (MtbADSL [1]) [µM] | other results |
| --- | --- | --- | --- | --- | --- | --- | --- | --- | --- | --- | --- | --- |
| CCCCCC(O)/C=C/C=O (stereo not shown) [4-HNE, 4-hydroxynonenal] | – | – | – | – | – | – | – | – | – | – | – | IC50 (MtbADSL [1]; read-out: IC50-Mtb PPDK, PPDK-luciferase coupling assay, SAMP 20 μM): 2.6 µM |
| O=C(O)Cc1cc(I)c(Oc2cc(I)c(O)c(I)c2)c(I)c1 [Tetrac, tetraiodothyroacetic acid] | ~ 1 log | ~ 2.5 log | 1.6 | dose-dependent protection | 22.4 | 13 | 6.2 | 8.3 | 30 (≈ 22.4 µg/mL) | 24.5 | 4.8 | Reduction of Tm on co-incubation with 4-HNE (MtbADSL [4]): ~ 0.6 °C; SI, selectivity index, IC50-human/IC50-Mtb (human ADSL (huADSL); listed as TT): 4.7; CC50 at 48 h (in vitro [8]): > 200 µM; viability at 48 h (in vitro [9]): ~71% |
| Oc1c(Cl)cc(Cl)cc1Sc1cc(Cl)cc(Cl)c1O [bithionol] | ~ 2.3 log | 4.6 log | 1.2 | dose-dependent protection | 14.7 | 6.2 | 3.1 | 8.7 | 28 (≈ 9.97 µg/mL) | 21.6 | 1.6 | Reduction of A549 cell viability (A549 cells): ~ 45%; CC50 at 48 h (Cytotoxicity CCK-8 [10]): 32.4 µM; CC50 at 48 h (Cytotoxicity CCK-8 [11]): 19.3 µM; AMP concentration at which growth is rescued (Mtb H37Ra): 5.0 mM; SI, selectivity index, IC50-human/IC50-Mtb (human ADSL (huADSL)): 9.2; MIC against Mycobacterium abscessus (Mycobacterium abscessus): 0.625 to 2.5 µM; CC50 at 48 h (Cytotoxicity CCK-8 [12]): ~139 µM |

Reference: publication PMC12812255 (ACS infectious diseases, 2025)
